Source: US20110112193A1 (priority 2008, published 2011)

target: T1, Recombinant human LTC4 synthase (Homo sapiens, UniProt Q16873); assay: LTC4 synthase in vitro assay (e.g. by HTRF detection); type: biochemical
T1 construct: made in house; host or cells: Pichia pastoris ('Piccia pastoralis' [sic])
T1 sequence (Q16873 1-150): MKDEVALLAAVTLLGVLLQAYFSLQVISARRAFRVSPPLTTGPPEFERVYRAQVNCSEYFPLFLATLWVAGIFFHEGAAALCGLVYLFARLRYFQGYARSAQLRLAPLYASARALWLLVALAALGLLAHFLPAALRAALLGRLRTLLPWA
Procedure: In the assay, LTC4 synthase catalyses the reaction where the substrate LTA4 methyl ester is converted to the corresponding LTC4 methyl ester. Recombinant human LTC4 synthase is expressed in Piccia pastoralis and the purified enzyme is dissolved in 25 mM Tris-buffer pH 7.8 and stored at −80° C. The assay is performed in phosphate buffered saline (PBS) pH 7.4, supplemented with 5 mM glutathione (GSH). The reaction is terminated by addition of acetonitrile/MeOH/acetic acid (50/50/1). The assay is performed at rt in 96-well plates. Analysis of the formed LTC4 methyl ester is performed with reversed phase HPLC (Waters 2795 utilizing an Onyx Monolithic C18 column). The mobile phase consists of acetonitrile/MeOH/H2O (32.5/30/37.5) with 1% acetic acid pH adjusted with NH3 to pH 5.6, and absorbance measured at 280 nm with a Waters 2487 UV-detector.
The following is added chronologically to each well: • 1. 50 μl assay buffer, PBS with 5 mM GSH. • 2. 0.5 μl inhibitor in DMSO (final conc. 1 nM-10 μM). • 3. 2 μl LTC4 synthase in PBS. The total protein concentration in this solution is 0.025 mg/ml. Incubation of the plate at room temperature for 10 minutes. • 4. 1-1.5 μl LTA4 methyl ester (final conc. 10 μM). Incubation of the plate at rt for 1 min. • 5. 50 μl stop solution.
80 μl of the incubation mixture is analysed with HPLC.
Alternatively, HTRF detection can be used:
In the assay, LTC4 synthase catalyses the reaction where the substrate LTA4 is converted to LTC4. Recombinant human LTC4 synthase is expressed in Piccia pastoralis and the purified enzyme is dissolved in 25 mM tris-buffer pH 7.8 supplemented with 0.1 mM glutathione (GSH) and stored at −80° C. The assay is performed in phosphate buffered saline (PBS) pH 7.4 and 5 mM GSH in 384-well plates.
The following is added chronologically to each well:
1.48 μL LTC4 synthase in PBS with 5 mM GSH. The total protein concentration in this solution is 0.5 μg/mL.
2. 1 μL inhibitor in DMSO (final concentration 1 nM to 10 μM).
3. Incubation of the plate at room temperature for 10 min.
4. 1 μL LTA4 (final concentration 2.5 μM).
5. Incubation of the plate at room temperature for 5 min.
6. 10 μL of the incubation mixture is analysed using homogenous time resolved fluorescent (HTRF) detection.

Compound | IC50
O=C(O)c1cc(Oc2ccc(Nc3ccc(F)c(F)c3)cc2C(=O)O)ccc1Nc1ccc(F)c(F)c1 [Example 4] | 2030 nM
CCCCOc1ccc(S(=O)(=O)Nc2ccc(Oc3ccc(Nc4ccc(F)c(F)c4)cc3C(=O)O)cc2)cc1 [Example 1, 2-[4-(4-Butoxy-benzene-sulfonylamino)-phenoxy]-5-(3,4-difluoro-phenyl-amino)-benzoic acid] | 243 nM
CCCCOc1ccc(S(=O)(=O)Nc2ccc(Oc3ccc(Nc4ccc(F)c(F)c4)cc3C(=O)O)cc2C(=O)O)cc1 [Example 3, 2-(4-Butoxy-benzene-sulfonylamino)-5-[2-carboxy-4-(3,4-difluoro-phenylamino)-phenoxy]-benzoic acid] | 1020 nM
O=C(O)c1cc(Nc2ccc(F)c(F)c2)ccc1Oc1ccc(Nc2ccc(F)c(F)c2)cc1 [Example 2, 5-(3,4-Difluoro-phenylamino)-2-[4-(3,4-difluoro-phenylamino)-phenoxy]-benzoic acid] | 1900 nM
